# Measured values published in patent US8974807B2, “Active agent combinations” (Bayer Cropscience AG, priority 2000, dated 2015).
# How the values were obtained:
# [1] = tested on: whitefly (Trialeurodes vaporariorum); test: Trialeurodes test (Example 2), sprayed red sage infested by whitefly, evaluated at 15, 19 and 25 days; type: in vivo; conditions: 100 g/ha
# Procedure: (§1) To produce a suitable preparation of active compound, a commercial formulation of active compound or active compound combination is mixed with water until the desired concentration is reached.
# Red sage (Lantana camara) which is heavily infested by the whitefly (Trialeurodes vaporariorum) is sprayed in intervals of 7 days in each case with a preparation of active compound at the desired application rate.
# Evaluation is carried out 15, 19 and 25 days after the second treatment. 100% means that all flies have been […], whilst 0% means that none of the flies have been killed.
# [2] = tested on: whitefly (Trialeurodes vaporariorum); test: Trialeurodes test (Example 1), sprayed red sage infested by all stages of whitefly; type: in vivo; conditions: 100 g/ha, sprayed on Lantana camara at 7-day intervals; evaluation 15 days after the second treatment
# Procedure: as §1
# Red sage (Lantana camara) which is heavily infested by all stages of the whitefly (Trialeurodes vaporariorum) is sprayed in intervals of 7 days in each case with a preparation of active compound at the desired application rate.
# Evaluation is carried out 15 days after the second treatment. 100% means that all flies have been killed, whilst 0% means that none of the flies have been killed.
compound,measurement,setting,value
"N#C/N=C1\SCCN1Cc1ccc(Cl)nc1 [(16) thiacloprid, thiacloprid]",Kill rate in % 15 days after the second treatment,[1]; 15 days after the second treatment,72.8%
same,Kill rate in % 19 days after the second treatment,[1]; 19 days after the second treatment,39.5%
same,Kill rate in % 25 days after the second treatment,[1]; 25 days after the second treatment,0%
same,Kill rate in %,[2],72.8%
